# Experimental data as given in patent publication US11850266B2, “Cardiomyocytes and compositions and methods for producing the same” (President and Fellows of Harvard College, priority 2019, dated 2023).
# What was measured:
# Assay type in all cases: cell-based, human
# [1] = system: iPSC-derived cardiomyocytes; test: Imaging quantification of proliferating cardiomyocytes (Ki67, phospho-histone H3); details: versus control, non-dissociated cells, FIG. 8
# Description: Cardiomyocytes were differentiated in 12 well plates then fixed and stained in the original plates to minimize potential for selection of cells that survive dissociation. Cells were stained with Ki67/TNNT2/DAPI or phospho-H3/TNNT2/DAPI as described in Immunostaining methods. Images were acquired with a fluorescent microscope. Monolayer regions containing TNNT2+ cells were randomly selected from 5 fields of view in the plate with a 10× objective. The particle analysis feature of ImageJ was used to quantify the number of cells per field of view that were positive for DAPI, Ki67, or pH3. To control for variability across samples, a signal threshold of <500 was set DAPI and pH3 (488 nm) channels and a signal threshold of <600 was set for Ki67 ([…]). Particle sizes between 10-1000 pixels^2 were included in the analysis. The percentage of Ki67+ cells or pH3+ cells out of the total number of cells marked by DAPI and TNNT2 was quantified. A chi-squared test was used to evaluate for statistical significance.
# [2] = system: iPSC-derived cardiomyocytes; test: NanoString PanCancer Pathways Panel gene expression; details: Torin1 200 nM 1 week, Gibco iPS-CMs, FIG. 7G
# Procedure: Gene expression analysis was performed using NanoString technology which employs an optical counting method of fluorescently barcoded RNA according to the manufacturer's instructions. The nCounter PanCancer Pathways Panel was selected to provide a multiplex analysis of 770 genes from several growth and cell cycle-related pathways, including cell cycle, apoptosis, Wnt, transcriptional regulation, PI3K, and TGF-β. This panel was selected to provide a multiplex analysis of pathways associated with cell cycle regulation, metabolism, quiescence and senescence. Cardiomyocytes were differentiated in a 12-well plate then cardiomyocytes were treated with Torin1 (200 nM) or vehicle (DMSO) starting ˜2 days after onset of beating for 1 week (days 9-16 for this batch). After completion of Torin1 treatment, cells were switched back to maintenance media (RPMI+B27+insulin). Beginning on day 18 of differentiation, 10% fetal bovine serum (FBS) was added to half of the wells per treatment group and FBS treatment was continued for 4 days (until day 22 of differentiation). […] Data were analyzed using nSolver 4.0 software with the Advanced Analysis Module 2.0 with normalization to internal housekeeping genes including in the panel to perform unsupervised hierarchical clustering, differential expression analyses, and pathway scoring using the R statistical package.
# [3] = system: iPSC-derived cardiomyocytes; test: Western analysis of protein expression in iPSC-derived cardiomyocytes
# Procedure: To prepare for differentiation, iPSCs were plated at a density between 20,000 to 80,000 cells (depending on the cell line) per well of a 12-well plate at four days prior to onset of differentiation. Cells were differentiated according to the protocol previously described by Lian et al. with some modifications (FIG. 1A) (1). Basal media was changed from StemFlex to RPMI/B27 on day 0 of differentiation. The GSK3 inhibitor, CHIR99021 (6 μM), was added for 48 hours from day 0 to day 2 of differentiation when cells were approximately 70-80% confluent. The Wnt antagonist IWP4 (5 μM) was added from days 2 to 4 of differentiation. Insulin (10 μg/ml) was added to the media starting on day 7 of differentiation, and media was changed every 2-3 days. In general, higher purity (TNNT2+) cardiomyocytes were observed when beating initiated prior to day 10 of differentiation, therefore only batches with onset of beating between days 7-10 of differentiation were included in this study. Beating cardiomyocytes were treated with Torin1 (200 nM, unless otherwise noted) or vehicle (0.02% dimethylsulfoxide (DMSO)) beginning at ˜2 days after onset of beating for 7 days (media changed with fresh Torin1 or DMSO every 2-3 days), unless otherwise noted. After Torin1 treatment, media was switched back to RPMI/B27/insulin and maintained with media change every 2-3 days until endpoint assay. In a few assays, fatty acids were added in the form of chemically defined lipids (Gibco) diluted 1:1000 simultaneous with Torin1 treatment. In some other assays, fetal bovine serum (10% FBS) was added to cells after completion of Torin treatment for 2-4 days.
# Cells were lysed with lysis buffer (1% Triton X, 0.35% Na-deoxycholate, 1 mM EDTA, 1% protease inhibitor cocktail (Sigma), 1% phosphatase inhibitor cocktail 2 (Sigma), 1% phosphatase inhibitor cocktail 3 (Sigma), 1 mM phenylmethylsulfonyl fluoride (PMSF)) and total protein was measured with the Pierce BCA Protein Assay Kit. Samples with equal total protein quantities (prepared in Laemmli Sample Buffer (Bio-Rad)) were loaded into a Mini-Protean TGX Precast Gel (Bio-Rad) and electrophoresed for 1 hour at 100 V before transfer to a PVDF membrane using the Trans-Blot Turbo Transfer System (Bio-Rad). The Precision Plus Protein Dual Color Standards molecular weight ladder was used to estimate molecular weight of detected bands (Bio-Rad). Membranes were blocked with 5% milk or bovine serum albumin then incubated with the primary antibody (Table 2) overnight at 4 degrees C. followed by incubation with the horseradish peroxidase-conjugated secondary antibody (Table 2) for 1 hour at room temperature. The Amersham ECL Western Blotting Detection kit was used to detect the protein signal by chemiluminescence, and band densities were quantified using ImageJ software (NIH).
# [4] = system: BJRiPS-derived cardiomyocytes; test: Example 3 preliminary qPCR of maturation genes in BJRiPS-derived cardiomyocytes
# Procedure: The BJRiPS cell line was used to generate preliminary data. BJRiPS cells were differentiated into cardiomyocytes according to previously published protocols (6). After the onset of beating (around day 10), cardiomyocytes were treated with vehicle (DMSO) or different concentrations of rapamycin, Torin1, or Torin2 for different time periods. Beating rate was counted manually. Some cells were harvested after 5-7 days of treatment for flow cytometry analysis. Other cells were harvested after 7 days of treatment for qPCR.
# [5] = Torin1 0-200 nM 4 days prior to harvest on day 22, BJRiPS, FIG. 11
# [6] = Torin1 10, 50, 200 nM, days 11-18, FIG. 32
compound,measurement,setting,value
CCC(=O)N1CCN(c2ccc(-n3c(=O)ccc4cnc5ccc(-c6cnc7ccccc7c6)cc5c43)cc2C(F)(F)F)CC1 [Torin1],percentage of Ki67+ cardiomyocytes,[1],significantly decreased
same,percentage of pH3+ cardiomyocytes,[1],did not change
same,expression of interleukin-8 (IL8) and SPP1 (osteopontin),[2],significant decrease in expression
same,TNNI1 protein levels,"[3]; FIG. 2B, RNA levels not increased",increase in TNNI1 protein levels
same,GATA4 protein expression,[3]; FIG. 5A,trend toward increased protein expression
same,expression of fatty acid receptor CD36,"[3]; FIG. 13C, BJRiPS-CM",trend toward increased expression
same,p21 protein expression,"[3]; Torin1 0, 10, 50, 200 nM 7 days, FIG. 5A",dose-dependent decrease
same,p53 protein (total and phosphorylated),"[3]; Torin1 0, 10, 50, 200 nM 7 days, Gibco iPS-CM, FIG. 5A",dose-dependent increase
same,"TNNI3 protein, late treatment",[3]; [5],increases expression of TNNI3
same,"p21 protein, late treatment",[3]; [5],decreases expression of p21
same,TNNTI3 by western analysis,"[3]; Torin1 10, 50, 200 nM 4 days, BJRiPS, FIGS. 18F-18G",significant increase in TNNTI3
same,"TNNI3 protein (western, densitometry)","[3]; Torin1 10, 50, 200 nM, 4 days, days 25-29, BJRiPS, FIG. 31",increased protein expression
same,TNNT2 and TNNI3 protein expression by western analysis,"[3]; Torin1 7 days, Gibco iPS-CMs, FIG. 2B",dose-dependent increase
same,RNA expression of ryanodine receptor (RyR) and SCN5a,[4]; FIG. 32,trend toward increased RNA expression
same,TNNI3 gene expression increase,"[4]; Torin1 200 nM (highest dose tested), FIG. 30",~10 fold
same,"RNA expression of TNNT2, TNNI3, MYH6, MYH7","[4]; Torin1 10, 50, 200 nM, days 11-18, FIG. 30",increased RNA expression of these proteins in a dose dependent manner
same,KCNJ2 expression,[4]; [6],trend toward a dose-dependent increase
same,"ion channel gene expression (KCNJ2, HCN4, SCN5a, RYR2, CACNA1c, SERCA2a)",[4]; [6],Ion channel gene expression increased
same,NPPB (BNP) mRNA expression,"[4]; Torin1 10, 50, 200 nM, days 11-18, FIG. 33",increased
same,PGC1-alpha (PPARGC1a) mRNA expression,"[4]; Torin1 10, 50, 200 nM, days 11-18, FIG. 35",increased expression
same,REST/NRSF expression,"[4]; dose-dependent, Torin1 10, 50, 200 nM, FIG. 34",increases gene expression for REST
same,RNA expression of markers of maturation including TNNI3 and KCNJ2,"[4]; preliminary data, after differentiation",increased RNA expression
